From ChEMBL document CHEMBL1201862, “PubChem BioAssay data set” (2004)
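Method: 48-hour compound exposure of cells in 96-well plates, five concentrations, linear interpolation of endpoints. GI50: concentration for 50% inhibition of growth.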 Calls of active or inactive are those of the source. Rule as the data show it: active = GI50 up to about 1.1 µM and inactive = higher. Where a SMILES comes first, the peptide text is derived from it. [ ]: non-standard residue; d: D form. The star is where a group is joined. Octanoyl = CCCCCCCC(=O)*; Aib = CC(C)(N)C(=O)O; tBu = CC(C)(C)*

Tests used:
Experiment in all cases: growth of human tumour cells (NCI), 48 h
786-0 = test system: 786-0
A549 = test system: A549
BT-549 = test system: BT-549
CAKI-1 = test system: CAKI-1
COLO 205 = test system: COLO 205
EKVX = test system: EKVX
Hs-578T = test system: Hs-578T
K562 = test system: K562
MDA-MB-231 = test system: MDA-MB-231
MDA-MB-435 = test system: MDA-MB-435
Malme-3M = test system: Malme-3M
OVCAR-3 = test system: OVCAR-3
OVCAR-4 = test system: OVCAR-4
OVCAR-8 = test system: OVCAR-8
SK-MEL-2 = test system: SK-MEL-2
SK-MEL-5 = test system: SK-MEL-5
SN12C = test system: SN12C
T47D = test system: T47D
TK-10 = test system: TK-10
RXF 393 = test system: RXF 393

SMILES | GI50 (786-0) | GI50 (A549) | GI50 (BT-549) | GI50 (CAKI-1) | GI50 (COLO 205) | GI50 (EKVX) | GI50 (Hs-578T) | GI50 (K562) | GI50 (MDA-MB-231) | GI50 (MDA-MB-435) | GI50 (Malme-3M) | GI50 (OVCAR-3) | GI50 (OVCAR-4) | GI50 (OVCAR-8) | GI50 (SK-MEL-2) | GI50 (SK-MEL-5) | GI50 (SN12C) | GI50 (T47D) | GI50 (TK-10) | GI50 (RXF 393)
CCCCCCCCCCCC1NC(N)=NC(CCCO)=C1C(=O)OC (centres undefined) | 1.83 µM (inactive) | 5.92 µM (inactive) | 4.67 µM (inactive) | 7.06 µM (inactive) | 1.88 µM (inactive) | 16.1 µM (inactive) | 1.92 µM (inactive) | 1.71 µM (inactive) | 2.08 µM (inactive) | 1.88 µM (inactive) | 5.12 µM (inactive) | 2.37 µM (inactive) | 2.97 µM (inactive) | 2.3 µM (inactive) | 1.63 µM (inactive) | 2.24 µM (inactive) | 2.47 µM (inactive) | 5.09 µM (inactive) | 2.23 µM (inactive) | 
COc1ccc(C2=Nn3c(nc4sc(-c5ccccc5)cc4c3=O)SC2)cc1 | 36.9 µM (inactive) | > 100 µM (inactive) | > 100 µM (inactive) | > 100 µM (inactive) | > 100 µM (inactive) | > 100 µM (inactive) | 34.4 µM (inactive) | > 10 µM (inactive) | > 100 µM (inactive) | > 100 µM (inactive) | > 100 µM (inactive) | > 100 µM (inactive) |  | > 100 µM (inactive) |  | > 100 µM (inactive) | > 100 µM (inactive) | > 100 µM (inactive) | > 100 µM (inactive) | > 10 µM (inactive)
CN1C(=O)c2ccccc2NC(=O)C12O[C@@H]2c1ccccc1 (some centres undefined) | > 100 µM (inactive) | > 100 µM (inactive) | > 100 µM (inactive) | 75.2 µM (inactive) | > 100 µM (inactive) | > 100 µM (inactive) | > 100 µM (inactive) |  | 67.6 µM (inactive) | > 100 µM (inactive) | > 100 µM (inactive) | > 100 µM (inactive) | > 100 µM (inactive) | > 100 µM (inactive) | > 100 µM (inactive) | > 100 µM (inactive) | > 100 µM (inactive) | > 100 µM (inactive) | > 100 µM (inactive) | 
Cc1cc(=O)oc2c3c(ccc12)OC(c1ccc(Br)cc1)CC3=O (centres undefined) | 5.48 µM (inactive) | 16.7 µM (inactive) | 3.03 µM (inactive) | 12.4 µM (inactive) | 12.7 µM (inactive) | 15.1 µM (inactive) | 2.56 µM (inactive) | 2.83 µM (inactive) | 7.35 µM (inactive) | 4.69 µM (inactive) | 6.43 µM (inactive) | 10.8 µM (inactive) | 26.5 µM (inactive) | 5.86 µM (inactive) | 11.3 µM (inactive) | 11.6 µM (inactive) | 5.42 µM (inactive) | 0.177 µM (active) | 13.7 µM (inactive) | 
CC(C)CC(NC=O)C(=O)NC(Cc1ccccc1)NC(=O)CNC(=O)C(C)NC(=O)OC(C)(C)C (centres undefined) | > 100 µM (inactive) | > 100 µM (inactive) | > 100 µM (inactive) | > 100 µM (inactive) | > 100 µM (inactive) | > 100 µM (inactive) | > 100 µM (inactive) | > 100 µM (inactive) | > 100 µM (inactive) | > 100 µM (inactive) | > 100 µM (inactive) | > 100 µM (inactive) | > 100 µM (inactive) | > 100 µM (inactive) |  | > 100 µM (inactive) | > 100 µM (inactive) | > 100 µM (inactive) | > 100 µM (inactive) | > 100 µM (inactive)
CCOC(=O)Nc1nn(C)/c(=N/Cc2ccccc2)s1 | > 100 µM (inactive) | > 100 µM (inactive) | 85.1 µM (inactive) | > 100 µM (inactive) | > 100 µM (inactive) | > 100 µM (inactive) | > 100 µM (inactive) | > 100 µM (inactive) | > 100 µM (inactive) | > 100 µM (inactive) |  | > 100 µM (inactive) | > 100 µM (inactive) |  | > 100 µM (inactive) | > 100 µM (inactive) | > 100 µM (inactive) | > 100 µM (inactive) | > 100 µM (inactive) | > 100 µM (inactive)
CC[C@@]1(O)C(=O)OCc2c1cc1n(c2=O)Cc2c-1nc1ccccc1c2/C=N\NC(=O)C(N)Cc1ccc(O)cc1 (some centres undefined) | 0.374 µM (active) | 0.815 µM (active) | 1.9 µM (inactive) | 0.315 µM (active) | 12.6 µM (inactive) | 2.57 µM (inactive) | 7.43 µM (inactive) | 0.531 µM (active) | 15.8 µM (inactive) | 1.61 µM (inactive) | 1.35 µM (inactive) |  | 6.61 µM (inactive) | 0.809 µM (active) |  | 0.638 µM (active) | 0.228 µM (active) | 0.285 µM (active) | > 31.6 µM (inactive) | 
CC1=CC(=O)/C(=C/n2c(=S)[nH]c3ccc([N+](=O)[O-])cc32)C(=O)O1 | > 100 µM (inactive) | > 100 µM (inactive) | > 100 µM (inactive) |  | > 100 µM (inactive) | > 50.1 µM (inactive) | > 100 µM (inactive) | > 100 µM (inactive) | > 100 µM (inactive) | > 100 µM (inactive) |  | > 100 µM (inactive) | > 100 µM (inactive) | > 100 µM (inactive) | > 100 µM (inactive) | > 100 µM (inactive) | > 100 µM (inactive) | > 100 µM (inactive) | > 100 µM (inactive) | > 100 µM (inactive)
O=C1C=C2CC[C@H]3[C@@H]4CC[C@H](Oc5c6ccccc6nc6ccccc56)[C@H]4CC[C@@H]3[C@H]2CC1 | 91.2 µM (inactive) | 54.1 µM (inactive) | 20.3 µM (inactive) | 36.7 µM (inactive) | 42.5 µM (inactive) | 4.47 µM (inactive) | 26.8 µM (inactive) | 32.7 µM (inactive) | 41.3 µM (inactive) | 32.7 µM (inactive) |  | 42.6 µM (inactive) | 52.7 µM (inactive) | 22.9 µM (inactive) | 40 µM (inactive) | 22.5 µM (inactive) | 55.3 µM (inactive) | 43.1 µM (inactive) | 47.8 µM (inactive) | 26.2 µM (inactive)
CCCCCCCC(=O)NC(C)(C)C(=O)NC(COC(C)(C)C)C(=O)NC(CC(C)C)C(=O)NC(C)(C)C(=O)NC(COC(C)(C)C)C(=O)NC(COC(C)(C)C)C(=O)NC(CC(C)C)C(=O)NC(C)(C)C(=O)NC(COC(C)(C)C)C(=O)NC(C(=O)NC(CC(C)C)C(=O)OC)C(C)CC (centres undefined) (Octanoyl-[Aib]S(tBu)L[Aib]S(tBu)S(tBu)L[Aib]S(tBu)IL-OMe; configuration not given here) | 7.89 µM (inactive) | 8.18 µM (inactive) | 5.38 µM (inactive) | 18.5 µM (inactive) | 6.55 µM (inactive) | 6.22 µM (inactive) | 8.85 µM (inactive) | 5.52 µM (inactive) | 5.86 µM (inactive) | 7.94 µM (inactive) |  | 4.85 µM (inactive) | 8.63 µM (inactive) | 8.65 µM (inactive) | 6.01 µM (inactive) | 6.22 µM (inactive) | 7.57 µM (inactive) | 6.38 µM (inactive) | 7.14 µM (inactive) | 3.57 µM (inactive)
